In EP4768499A1, “MACROCYCLIC PEPTIDE COMPOUND HAVING CELL MEMBRANE PERMEABILITY AND METABOLIC STABILITY, AND LIBRARY CONTAINING SAME” (Chugai Seiyaku Kabushiki Kaisha, priority 2023, dated 2025):
Starred links: 1 amine or outer side, 2 acyl side, 3 side chain; linkers in the order of their positions; H or OH if unused. Positions of bridges follow the written chain, without caps; N, C: chain ends. Non-standard residues stand in square brackets, D forms with d. Residues, ends and D or L forms follow the SMILES beside them. *: point of attachment. NMeF = CN[C@@H](Cc1ccccc1)C(=O)O; NMeGABA = CN(CCCC(=O)[*:2])[*:1]; NMeI = CC[C@H](C)[C@H](NC)C(=O)O; NMeT = CN[C@H](C(=O)O)[C@@H](C)O; hPhe = N[C@@H](CCc1ccccc1)C(=O)O; NMeβAla = CN(CCC(=O)[*:2])[*:1]; NMeD = CN[C@@H](CC(=O)O)C(=O)O; NMeL = CN[C@@H](CC(C)C)C(=O)O; NMeV = CN[C@H](C(=O)O)C(C)C; d(β3hA) = C[C@@H](N)CC(=O)O; NMeAbu = CC[C@H](NC)C(=O)O; NMeA = CN[C@@H](C)C(=O)O; Piperidide = C1CCN(*)CC1; Abu = CC[C@H](N)C(=O)O; NBuGly = CCCCNCC(=O)O; Sar = CNCC(=O)O; tBu = CC(C)(C)*

Experiments:
[1] = Metabolic stability test: liver microsomal stability assay; assay type: in vitro ADME, mouse; details: mouse liver microsomes 0.5 mg protein/mL, compound 1 µM; for microsomal CLint at 1 µM: male, pH 7.4, presence of NADPH, read-out: Mouse Hepatic Microsome CLh,int NADPH(+); for Mouse Hepatic Microsome CLh,int NADPH(-): absence of NADPH
[2] = Membrane permeability test using Caco-2 cells with preincubation; assay type: in vitro ADME; details: Caco-2; preincubation 20 to 24 hours; Apical FaSSIF/HBSS pH 6.0, Basal HBSS 4% BSA pH 7.4; 180 minutes; read-out: Caco2 Papp
[3] = tested on: Caco-2 cells; assay: as above; assay type: in vitro ADME; details: Caco-2 cells, preincubation 20 to 24 hours; apical FaSSIF/HBSS 1% DMSO pH 6.0, basal HBSS 4% BSA pH 7.4; basal sample at 180 minutes

Structure (SMILES) | microsomal CLint at 1 µM [1] | Mouse Hepatic Microsome CLh,int NADPH(-) [1] | Papp A→B [2] | Caco2 Papp (10^-6 cm/sec) [3]
CC[C@@H]1NC(=O)[C@H](Cc2ccccc2)N(C)C(=O)[C@H](CC(C)C)N(C)C(=O)[C@H](CC(C)C)NC(=O)[C@H](C)N(C)C(=O)C[C@@H](C(=O)N2CCCCC2)N(C)C(=O)[C@H](CC(C)C)N(C)C(=O)[C@H]([C@@H](C)CC)NC(=O)[C@H](Cc2ccccc2)N(C)C(=O)[C@H]([C@@H](C)O)N(C)C(=O)[C@H]([C@@H](C)CC)N(C)C(=O)[C@H](CC(C)C)NC(=O)CN(C)C1=O [pd163] ([NMeA]L[NMeL][NMeF][Abu][Sar]L[NMeI][NMeT][NMeF]I[NMeL][NMeD]-Piperidide; lactam N-13) | 28.2 µL/min/mg | 36.5 µL/min/mg Protein | 0.04 ×10⁻⁶ cm/s | 0.04 10^-6 cm/sec
CC[C@H](C)[C@@H]1NC(=O)[C@H](CC(C)C)N(C)C(=O)[C@H](CC(C)C)NC(=O)[C@H](C)N(C)C(=O)C[C@@H](C(=O)N2CCCCC2)NC(=O)[C@H](CC(C)C)NC(=O)[C@@H]2CCCN2C(=O)[C@H](CC(C)C)N(C)C(=O)[C@H]([C@@H](C)O)NC(=O)[C@H]([C@@H](C)CC)N(C)C(=O)[C@H](Cc2ccccc2)N(C)C(=O)[C@H](C)NC(=O)[C@H](Cc2ccccc2)N(C)C1=O [pd104] ([NMeA]L[NMeL]I[NMeF]A[NMeF][NMeI]T[NMeL]PLD-Piperidide; lactam N-13) | 36 µL/min/mg | 36.2 µL/min/mg Protein | 0.2 ×10⁻⁶ cm/s | 0.20 10^-6 cm/sec
CC[C@H](C)[C@H]1C(=O)N[C@@H]([C@@H](C)O)C(=O)N(C)CC(=O)N(C)[C@@H](CC(C)C)C(=O)N[C@@H](CC(C)C)C(=O)N[C@H](C(=O)N2CCCCC2)CC(=O)N(C)[C@@H](C)C(=O)N[C@@H](CC(C)C)C(=O)N(C)[C@@H](CC(C)C)C(=O)N[C@@H](C(C)C)C(=O)N(C)CCC(=O)N(C)[C@@H](Cc2ccccc2)C(=O)N[C@@H](C)C(=O)N(C)[C@@H](Cc2ccccc2)C(=O)N1C [pd037] ([NMeA]L[NMeL]V[NMeβAla][NMeF]A[NMeF][NMeI]T[Sar][NMeL]LD-Piperidide; lactam N-14) | 18.3 µL/min/mg | 17.7 µL/min/mg Protein | 0.26 ×10⁻⁶ cm/s | 0.26 10^-6 cm/sec
CC(C)C[C@@H]1NC(=O)[C@H]([C@@H](C)O)N(C)C(=O)[C@@H](C(C)C)NC(=O)C[C@@H](C(=O)N2CCCCC2)NC(=O)[C@H](C(C)C)N(C)C(=O)[C@H](C)N(C)C(=O)[C@H](C(C)C)NC(=O)[C@H](Cc2ccccc2)N(C)C(=O)[C@@H]2CCCN2C(=O)[C@H](CC(C)C)N(C)C(=O)CN(C)C(=O)[C@H](CCc2ccccc2)NC(=O)[C@H](CC(C)C)N(C)C(=O)[C@H](C(C)C)N(C)C1=O [pd040] ([dV][NMeT]L[NMeV][NMeL][hPhe][Sar][NMeL]P[NMeF]V[NMeA][NMeV]D-Piperidide; lactam N-14) | 24.8 µL/min/mg | 22.3 µL/min/mg Protein | 0.17 ×10⁻⁶ cm/s | 0.17 10^-6 cm/sec
CCCCN1CC(=O)N(C)[C@@H](CC)C(=O)N[C@@H](CC(C)C)C(=O)N[C@H](C(=O)N2CCCCC2)CC(=O)N(C)[C@@H](C)C(=O)N[C@@H]([C@@H](C)CC)C(=O)N(C)[C@@H](Cc2ccccc2)C(=O)N(C)[C@@H](CC(C)C)C(=O)N[C@@H](C(C)C)C(=O)N(C)CC(=O)N[C@@H](CC(C)C)C(=O)N(C)[C@@H](Cc2ccccc2)C(=O)N(C)[C@@H](C)C(=O)N[C@@H](CC(C)C)C1=O [pd018] ([NMeA]I[NMeF][NMeL]V[Sar]L[NMeF][NMeA]L[NBuGly][NMeAbu]LD-Piperidide; lactam N-14) | 42.3 µL/min/mg | 34.1 µL/min/mg Protein | 0.11 ×10⁻⁶ cm/s | 0.11 10^-6 cm/sec
CC[C@H](C)[C@@H]1NC(=O)[C@H](C)N(C)C(=O)[C@H]([C@@H](C)O)NC(=O)[C@H](Cc2ccccc2)N(C)C(=O)[C@H](COC(C)(C)C)NC(=O)[C@H](CC(C)C)N(C)C(=O)[C@H](C(C)C)NC(=O)CN(C)C(=O)[C@H](Cc2ccccc2)N(C)C(=O)[C@H]([C@@H](C)CC)NC(=O)[C@H](CC(C)C)N(C)C(=O)CCN(C)C(=O)C[C@@H](C(=O)N2CCCCC2)NC(=O)[C@H](CC(C)C)N(C)C1=O [pd034] ([NMeβAla][NMeL]I[NMeF][Sar]V[NMeL]S(tBu)[NMeF]T[NMeA]I[NMeL]D-Piperidide; lactam N-14) | 46.8 µL/min/mg | 36.0 µL/min/mg Protein | 0.27 ×10⁻⁶ cm/s | 0.27 10^-6 cm/sec
CC(C)C[C@H]1C(=O)N2CCC[C@H]2C(=O)N(C)[C@@H](Cc2ccccc2)C(=O)N[C@@H](C(C)C)C(=O)N(C)[C@@H](C)C(=O)N(C)[C@@H](C(C)C)C(=O)N[C@H](C(=O)N2CCCCC2)CC(=O)N[C@H](C(C)C)C(=O)N(C)[C@@H]([C@@H](C)O)C(=O)N(C)[C@@H](CC(C)C)C(=O)N(C)[C@@H](C(C)C)C(=O)N(C)[C@@H](CC(C)C)C(=O)N[C@@H](CCc2ccccc2)C(=O)N(C)CC(=O)N1C [pd047] ([dV][NMeT][NMeL][NMeV][NMeL][hPhe][Sar][NMeL]P[NMeF]V[NMeA][NMeV]D-Piperidide; lactam N-14) | 41.4 µL/min/mg | 30.0 µL/min/mg Protein | 0.16 ×10⁻⁶ cm/s | 0.16 10^-6 cm/sec
CC[C@H](C)[C@@H]1NC(=O)[C@H](CCc2ccccc2)NC(=O)[C@H](CC(C)C)N(C)C(=O)[C@H](C)N(C)C(=O)[C@H](Cc2ccccc2)N(C)C(=O)[C@@H]2CCCN2C(=O)[C@H]([C@@H](C)CC)NC(=O)[C@H](CC(C)C)N(C)C(=O)CCN(C)C(=O)C[C@@H](C)NC(=O)[C@H](CC(C)C)N(C)C(=O)[C@H]([C@@H](C)O)NC(=O)[C@H](C)N(C)C1=O [pd133] (cyclo(I[NMeA]T[NMeL][d(β3hA)][NMeβAla][NMeL]IP[NMeF][NMeA][NMeL][hPhe])) | 25.6 µL/min/mg | 23.6 µL/min/mg Protein | 0.53 ×10⁻⁶ cm/s | 0.53 10^-6 cm/sec
CC[C@@H]1NC(=O)[C@H](CC(C)C)N(C)C(=O)[C@H](CC(C)C)NC(=O)CN(C)C(=O)[C@H](C(C)C)NC(=O)[C@H](CC(C)C)N(C)C(=O)[C@H](C(C)C)NC(=O)[C@H](Cc2ccccc2)N(C)C(=O)[C@H](C)N(C)C(=O)[C@@H](C)NC(=O)C[C@@H](C)NC(=O)[C@H](C(C)C)N(C)C(=O)[C@H](CC)N(C)C(=O)[C@H](CCc2ccccc2)NC1=O [pd006] (cyclo([Abu][hPhe][NMeAbu][NMeV][d(β3hA)][dA][NMeA][NMeF]V[NMeL]V[Sar]L[NMeL])) | 51.4 µL/min/mg | 30.0 µL/min/mg Protein | < 0.11 ×10⁻⁶ cm/s | <0.11 10^-6 cm/sec
CC[C@H](C)[C@@H]1NC(=O)[C@H](CC(C)C)N(C)C(=O)[C@H](C)N(C)C(=O)[C@H](Cc2ccccc2)N(C)C(=O)[C@@H]2CCCN2C(=O)[C@H](CC(C)C)N(C)C(=O)[C@H](CCc2ccccc2)NC(=O)CCN(C)C(=O)C[C@@H](C)NC(=O)[C@H](CC(C)C)N(C)C(=O)[C@H]([C@@H](C)O)NC(=O)CCN(C)C(=O)[C@H](C(C)C)N(C)C1=O [pd138] (cyclo(I[NMeV][NMeβAla]T[NMeL][d(β3hA)][NMeβAla][hPhe][NMeL]P[NMeF][NMeA][NMeL])) | 39.3 µL/min/mg | 11.1 µL/min/mg Protein | 0.23 ×10⁻⁶ cm/s | 0.23 10^-6 cm/sec
CC[C@@H]1NC(=O)[C@H](Cc2ccccc2)N(C)C(=O)[C@H]([C@@H](C)CC)NC(=O)[C@H](CC(C)C)N(C)C(=O)[C@H](CC(C)C)NC(=O)CCN(C)C(=O)C[C@@H](C(=O)N2CCCCC2)NC(=O)[C@H](C(C)C)NC(=O)[C@H](CC(C)C)N(C)C(=O)[C@H](C)N(C)C(=O)[C@H]([C@@H](C)O)NC(=O)[C@H](CC(C)C)N(C)C(=O)[C@H](COC(C)(C)C)NC(=O)[C@H](Cc2ccccc2)N(C)C1=O [pd021] ([NMeβAla]L[NMeL]I[NMeF][Abu][NMeF]S(tBu)[NMeL]T[NMeA][NMeL]VD-Piperidide; lactam N-14) | 37.1 µL/min/mg | 36.3 µL/min/mg Protein | 0.15 ×10⁻⁶ cm/s | 0.15 10^-6 cm/sec
CC[C@H](C)[C@@H]1NC(=O)[C@H](COC(C)(C)C)NC(=O)[C@H]([C@@H](C)O)NC(=O)[C@H](Cc2ccccc2)N(C)C(=O)[C@H](C)N(C)C(=O)[C@H](CC(C)C)N(C)C(=O)[C@H](CCc2ccccc2)NC(=O)[C@@H]2CCCN2C(=O)[C@H]([C@@H](C)CC)NC(=O)[C@H](CC(C)C)N(C)C(=O)[C@H](C)NC(=O)CCCN(C)C(=O)C[C@@H](C(=O)N2CCCCC2)NC(=O)[C@H](CC(C)C)N(C)C1=O [pd022] ([NMeGABA]A[NMeL]IP[hPhe][NMeL][NMeA][NMeF]TS(tBu)I[NMeL]D-Piperidide; lactam N-14) | 44.4 µL/min/mg | 36.4 µL/min/mg Protein | 0.15 ×10⁻⁶ cm/s | 0.15 10^-6 cm/sec
CC[C@H]1C(=O)N(C)[C@@H](C)C(=O)N(C)[C@@H](C(C)C)C(=O)N[C@H](C)CC(=O)N[C@H](C(C)C)C(=O)N(C)[C@@H](CC(C)C)C(=O)N[C@@H](CC(C)C)C(=O)N(C)[C@@H](C(C)C)C(=O)N(C)[C@@H](CC(C)C)C(=O)N(C)CC(=O)N[C@@H]([C@@H](C)O)C(=O)N(C)[C@@H](Cc2ccccc2)C(=O)N[C@@H](COC(C)(C)C)C(=O)N1C [pd131] (cyclo(L[NMeV][NMeL][Sar]T[NMeF]S(tBu)[NMeAbu][NMeA][NMeV][d(β3hA)][dV][NMeL])) | 17.8 µL/min/mg | 13.5 µL/min/mg Protein | 2.18 ×10⁻⁶ cm/s | 2.18 10^-6 cm/sec
